# Entries after “also recorded” stand apart in the source; their conditions may differ. Residues, ends and D or L forms follow the SMILES beside them.
# Tests used:
# human lung cancer cells = assay: Orthotopic lung cancer model treated with liposomal cisplatin or carboplatin; assay type: in vivo, mice; details: intravenous, 2.5 mg/kg
# Procedure: Orthotopic lung cancer mouse model was created by intratracheal instillation of human lung cancer cells. The progression of tumor growth was monitored using bioluminescent and magnetic resonance (MRI) imaging. Luciferase transfected cancer cells were visualized in live anesthetized animals using in-vivo bioluminescence IVIS system (Xenogen, Alameda, CA). Luciferin (150 mg/kg) was intraperitoneally administered 10-15 minutes before imaging. All imaging procedures were performed at special imaging facilities of the Rutgers University Molecular Imaging Center as previously described. Mice were anesthetized with isoflurane (4% for induction of anesthesia and 1-2% for maintenance) using XGI-8 Gas Anesthesia System (Xenogen, Alameda, CA) for all imaging procedures. MRI was performed using a 1 T M2™ whole body scanner (Aspect Imaging, Shoham, Israel). Images (repetition time 2607 ms, echo time 44 ms) were recorded in Fast Spin Echo sequence. At a spatial resolution of 312 μm, the tumors were coronal imaged in a single section through the mouse body using an image matrix of 256×256, a field of view of 80 mm^2, and 4 excitation. Magnetic resonance signal and tumor volume were calculated using VivoQuant 1.21 software (Invicro, Boston, MA).
# In order to deliver liposome-based system by inhalation, a Collison nebulizer (BGI, Inc., Waltham, MA) was connected to four-port nose-only exposure chambers (the chamber was made by CH Technologies, Westwood, NJ according to our design). […] The installation was designed and regime of inhalation was selected to keep the inhalation dosage controllable and uniform from animal to animal with a minimal damage to the nanoparticles. The solution of NLC was aerosolized at a flow rate of 2 L/min and then diluted by an additional 2 L/min of air. […] It was also shown that the aerosol distribution between the four ports of the chamber was homogenous. The dose of Cis and Carb in all drug-containing formulations was 2.5 mg/kg for the single administration.
# A549 cells = assay: Cytotoxicity (MTT); assay type: cell-based, human; details: 72 h, 1 μM
# NCI-H1781 cells = assay: Cytotoxicity (MTT); assay type: cell-based, human; details: 72 h, 1 μM
# Procedure: (§1) Cytotoxicity, Apoptosis Induction and Immune Response. The toxicities of the developed formulations were compared with a commercially used EGFR inhibitor gefitinib in three types of human lung cancer cells with different resistance to the drug. […] Cytotoxicity and apoptosis induction were analyzed by a modified 3-(4,5-Dimethylthiazol-2-yl)-2,5-diphenyltetrazolium bromide (MTT) assay and cell death detection ELISA Plus kit (Roche, Nutley, NJ), respectively. The cells were seeded on a 96 well plate at 10,000 cells per well with 100 μl of growth media in each well and placed in the incubator for 24 hours. After 24 hours, the media was removed and the cells were treated with varying concentrations of above indicated substances. The concentrations of tested substances were prepared using a serial dilution (1:2) to make 12 different working solutions for the cytotoxicity measurement.
# NCI-H3255 cells = assay: Cytotoxicity (MTT); assay type: cell-based, human; details: 72 h, 1 μM
# Procedure: as §1
# [1] = tested on: NCI-H1781, A549 and NCI-H3255 NSCLC cell lines; assay: Apoptosis induction (cell death detection ELISA); assay type: cell-based, human; details: 72 h; 1 μM gefitinib or 0.3 ng/ml nanocarrier
# Procedure: as §1
# The control cells were incubated with fresh media. Previously validated in our laboratory MTT and apoptosis induction measurement protocols were used.
# A549 lung cancer cells = assay: Orthotopic lung cancer model, tumor volume; assay type: in vivo, mice; details: intravenous, TAX 2.5 mg/kg
# Procedure: In Vivo Lung Cancer Model, Imaging and Treatment. All animal experiments were carried out according to the protocol approved by Institutional Animal Care and Use Committee (IACUC). Nude mice were purchased from the approved commercial vendor (Taconic, Germantown, NY). All aspects of the program for procurement, conditioning/quarantine, housing management, veterinary care and disposal of carcasses followed the guidelines set forth in the NIH Guide for the Care and Use of Laboratory Animals. Animals were housed in the […]—accredited animal facility with free access to food and water. Veterinary care was supplied by Rutgers University Lab Animal Services. Orthotopic lung cancer mouse model was created by intratracheal instillation of A549 lung cancer cells as previously described. The progression of tumor growth was monitored using bioluminescent and magnetic resonance (MRI) imaging. Luciferase transfected cancer cells were visualized in live anesthetized animals using in-vivo bioluminescence IVIS system (Xenogen, Alameda, CA). Luciferin (150 mg/kg) was intraperitoneally administered 10-15 minutes before imaging. […] Images (repetition time 2607 ms, echo time 44 ms) were recorded in Fast Spin Echo sequence. […] Magnetic resonance signal and tumor volume were calculated using VivoQuant 1.21 software (Invicro, Boston, MA). […]
# [2] = tested on: LHRH-positive lung cancer cells; assay: Cytotoxicity (MTT) and competitive inhibition by LHRH peptide; assay type: cell-based
# Procedure: as §1
structure (smiles),measurement,setting,value
"N.N.O=C([O-])C1(C(=O)[O-])CCC1.[Pt+2] [Carb, carboplatin]",antitumor effect,human lung cancer cells,slightly slowed the tumor progression; also recorded: somewhat higher antitumor activity
"N.N.[Cl][Pt][Cl] [Cis, cisplatin]",antitumor effect,human lung cancer cells,slightly slowed the tumor progression
COc1cc2ncnc(Nc3ccc(F)c(Cl)c3)c2cc1OCCCN1CCOCC1 [gefitinib],sensitivity to gefitinib,A549 cells,moderate sensitivity to gefitinib
same,sensitivity to gefitinib,NCI-H1781 cells,most resistant to gefitinib
same,sensitivity to gefitinib,NCI-H3255 cells,the most sensitive to gefitinib
same,apoptosis induction,[1],correlated with its cytotoxicity
"CC(=O)O[C@H]1C(=O)[C@@]2(C)[C@H]([C@H](OC(=O)c3ccccc3)[C@]3(O)C[C@H](OC(=O)[C@H](O)[C@@H](NC(=O)c4ccccc4)c4ccccc4)C(C)=C1C3(C)C)[C@]1(OC(C)=O)CO[C@@H]1C[C@@H]2O [TAX, Paclitaxel]",decrease of lung tumor volume at the end of the experiment,A549 lung cancer cells,1.1 times
"CCNC(=O)[C@@H]1CCCN1C(=O)[C@H](CCCNC(=N)N)NC(=O)[C@H](CC(C)C)NC(=O)[C@@H](CCCCNC(=O)[C@H](N)CS)NC(=O)[C@H](Cc1ccc(O)cc1)NC(=O)[C@H](CO)NC(=O)[C@H](Cc1c[nH]c2ccccc12)NC(=O)[C@H](Cc1c[nH]cn1)NC(=O)[C@@H](N)CCC(N)=O [LHRH peptide, Gln-His-Trp-Ser-Tyr-DLys(D-Cys)-Leu-Arg-Pro] (HELM PEPTIDE1{Q.H.W.S.Y.[dK].L.R.P.[CCN[*:1]]}|PEPTIDE2{[dC]}$PEPTIDE1,PEPTIDE2,6:R3-1:R2$$$V2.0)",cytotoxicity,[2],did not demonstrate any toxicity
same,effect of LHRH receptor ligand on cytotoxicity of LHRH-NLC-TAX,[2]; cells incubated with different concentrations of LHRH peptide,limited cytotoxicity of LHRH-NLC-TAX in a concentration-dependent manner

# Source: US11896713B2, “Strategies to enhance lung cancer treatment” (Rutgers, The State University of New Jersey, priority 2020, dated 2024)
